Columns and labels:
caspase 3 and caspase 8 = test: Caspase dependence of growth inhibition and caspase expression; assay type: cell-based
From the text: Thus, the compound may induce apoptosis in a caspase-independent pathway.

human leukemic cell U937 [1] = test: MTT cell survival assay, leukemic cells U937; assay type: cell-based
Protocol: Examples of the present invention adopted anti-tumor drugs screening model of National Cancer Institute (NCI) to examine inhibitory effect of the compound on cancer cells. The compound was added into culture medium containing leukemic cells U937 (a human monoblastoid leukemic cell line) to test for tumor cell survival. Cell survival rate is determined by well known MTT assay, and U937, a human myeloid leukemic cell line obtained from American Type Culture Collection (ATCC), is belonged to one of human acute leukemic cell lines and is classified as monoblasts during hematopoietic differentiation.
MTT assay is a commonly used method for analysis of percent of viable cells, wherein MTT (3-[4,5-dimethylthiazol-2-yl]2,5-diphenyltetrazolium bromide) is a yellow color dye that can be absorbed by living cells and be converted by mitochondria succinate tetrazolium reductase to water insoluble purple-blue formazan. Therefore, the amount of formazan formation can be used as an assessment tool to determine the survival rate of cells.
The human leukemia cell line U937 was cultivated in RPMI 1640 medium containing fetal calf serum for 24 hours and maintained in the exponential growth condition. The proliferating cells were treated with the compound in the concentration of 0 (the control group), 1.25, 2.5, 5 or 10 μg/ml at 37° C. under 5% CO2 for 24-72 hours, respectively. Then MTT was added in a concentration of 500 μg/ml into each wells in the dark and incubated for 4 hours, followed by the addition of 500 μl of isopropanol to stop the reaction. The plates were read on an ELISA reader at wavelength of 570 nm to determine the cell survival rates. The results were reported as the average±(plus/minus) SEM (Standard Error in the Mean). For statistical analysis, the t-test was used to compare the difference between each experiment result. p<0.05 was considered statistically significant.

[2] = test system: human pancreatic cancer cell line BxPC-3; test: MTT cell survival assay, pancreatic cancer cells; assay type: cell-based
Protocol: (§1) The test adopted the cell survival analysis (i.e., the MTT assay as described above). The purified compound was added into the culture media with human pancreatic cancer cell line BxPC-3 to test for tumor cell survival. This survival assay was carried out with the abovementioned MTT assay, wherein the pancreatic cancer cell line BxPc-3 was purchased from American Type Culture Collection (ATCC), the cell line originated from the epithelium of human pancreatic adenocarcinomas.
The human pancreatic cancer cell line BxPc-3 was cultivated in DMEM media containing 100 IU/ml penicillin (Invitrogen, Carlsbad, Calif.), 100 μg/ml streptomycin (Invitrogen, Carlsbad, Calif.), 2 mM glutamin (Invitrogen, Carlsbad, Calif.), and 10% fetal calf serum (Atlanta Biologicals, Norcross, Ga.). The proliferated cells were treated with the compound in the concentration of 0 (the control group), 5 and 10 μg/ml (the experimental group), respectively. The cells were incubated at 37° C. in a 5% CO2 incubator for 24-72 hours. 500 μg/ml of MTT was added into each well in the dark and incubated for 4 hours, followed by the addition of 500 μl of isopropanol to stop the reaction. The plates were read on an ELISA reader at wavelength of 570 nm to determine the cell survival rates. The results were reported as the average±(plus/minus) SEM (Standard Error in the Mean). […]

[3] = test system: human esophageal cancer cell line CE-81T/VGH; test: MTT cell survival assay, esophageal cancer cells; assay type: cell-based; conditions: 5 μg/ml, 72 hours
Protocol: The purified compound was added into the culture media with human esophageal cancer cell line CE-81T/VGH to test for tumor cell survival. This survival assay was carried out with the abovementioned MTT assay, wherein the CE-81T/VGH esophageal cancer cell line was obtained from Taipei Veteran General Hospital, the cell line originated from the epithelium of human esophageal cancer cells.
(§2) The human esophageal cancer cell line CE-81T/VGH was cultivated in DMEM media containing 100 IU/ml penicillin (Invitrogen, Carlsbad, Calif.), 100 μg/ml streptomycin (Invitrogen, Carlsbad, Calif.), 2 mM glutamin (Invitrogen, Carlsbad, Calif.), and 10% fetal calf serum (Atlanta Biologicals, Norcross, Ga.). The proliferated cells were treated with the compound in the concentration of 0 (the control group) and 5 μg/ml (the experimental group), respectively. The cells were incubated at 37° C. in a 5% CO2 incubator for 24-72 hours. 500 μg/ml of MTT was added into each well in the dark and incubated for 4 hours, followed by the addition of 500 μl of isopropanol to stop the reaction. The plates were read on an ELISA reader at wavelength of 570 nm to determine the survival rates.

[4] = test system: human hepatoma cell line HA22T/VGH; test: MTT cell survival assay, hepatoma cells; assay type: cell-based; conditions: 5 μg/ml, 72 hours
Protocol: The test adopted the cell survival analysis (i.e., the MTT assay as described above). The purified compound was added into the culture media with human hepatoma cell line HA22T/VGH to test for tumor cell survival. This survival assay was carried out with the abovementioned MTT assay, wherein the hepatoma cell line HA22T/VGH was obtained from Taipei Veteran General Hospital, the cell line originated from the human hepatoma.
as §2, with “hepatoma” for “esophageal cancer”, “HA22T/VGH” for “CE-81T/VGH”

[5] = test system: human cervical adenocarcinoma cell line HeLa; test: MTT cell survival assay, cervical adenocarcinoma cells; assay type: cell-based; conditions: 5 μg/ml, 72 hours
Protocol: as §1, with “cervical adenocarcinoma” for “pancreatic cancer”, “HeLa” for “BxPC-3”, “HeLa” for “BxPc-3”, “cervical adenocarcinoma.” for “pancreatic adenocarcinomas.”
as §2, with “cervical adenocarcinoma” for “esophageal cancer”, “HeLa” for “CE-81T/VGH”

[6] = test system: human ovarian cancer cell line SKOV-3; test: MTT cell survival assay, ovarian cancer cells; assay type: cell-based; conditions: 5 μg/ml, 72 hours
Protocol: The test adopted the cell survival analysis (i.e. the MTT assay as described above). The purified compound was added into the culture media of human ovarian cancer cell line SKOV-3 to test for tumor cell survival. This survival assay was carried out with the abovementioned MTT assay, wherein the ovarian cancer cell line SKOV-3 was purchased from American Type Culture Collection (ATCC), the cell line originated from the epithelium of human ovarian cancer.
as §2, with “ovarian” for “esophageal”, “SKOV-3” for “CE-81T/VGH”

[7] = test system: human leukemic cell line U937; test: Cell cycle analysis by flow cytometry; assay type: cell-based; conditions: 2.5 μg/ml, 48 hours
Protocol: Flow cytometer was used to analyze the effect of the compound on cell cycle of human leukemic cells.
The compound in concentration of 2.5 μg/ml was used to treat human leukemic cell line U937, and cells without addition of compound were served as the control group. The treated cells after 48 hours of treatment were fixed at 4° C. with 70% ethanol for 1 hour and stained for 30 minutes with propidium iodide solution (0.5 mg/ml of propidium iodide; 0.1 mg/ml of RNAse) contained in a CycleTEST PLUS DNA reagent kit (Becton Dickinson, Lincoln Park, N.J.). DNA content measurement on the collected 10^4 cells was performed on the FACS Calibur flow cytometer (Becton Dickinson), and the cell cycle changes were analyzed using a ModFit software (Becton Dickinson).

tumor cells = test: DNA gel electrophoresis, inter-nucleosomal DNA cleavage; assay type: cell-based; conditions: 5 μg/ml; 24 hours; 1.5% agarose gel
Protocol: Lane 1, molecular marker; Lane 2, control group; Lane 3, experimental group (treated with 5 μg/ml of the compound for 24 hours).
In addition to the morphological changes described above, cells may show some biochemical changes during cell apoptosis, including chromatin condensation, formation of apoptotic body due to cell fragmentation, and inter-nucleosomal cleavage of DNA that leading to formation of DNA ladder in DNA electrophoresis. To confirm the relationship of inhibition activity between the compound and the stage of cell apoptosis, the experiment adopted DNA electrophoresis to examine inter-nucleosomal cleavage of DNA into DNA ladder at late stage of cell apoptosis.
Total DNAs were extracted and analyzed by 1.5% agarose gel electrophoresis in TBE buffer (5 mM TBE buffer containing 1 μM EDTA, pH 8.0). The gel was stained with ethidium bromide and visualized under UV.

human leukemic cell U937 [8] = test: Mitochondria transmembrane potential, DiOC6(3) flow cytometry; assay type: cell-based; conditions: 5 μg/ml, 16 hours
Protocol: Human leukemic cell U937 was treated with the compound (5 μg/ml) for 16 hours. The same cells treated with anti-tumor agent camptothecin (4 μM) for 16 hours were used as positive control group, while untreated cells were used as control group. The cells were then washed with PBS solution, followed by addition of 40 nM 3,3′-dihexyloxacarbocyanine(DiOC6(3); Molecular Probes, Eugene, Oreg.) into culture medium at 37° C. in the dark and incubated for 15 minutes. The results were analyzed immediately using flow cytometry, wherein the excitation wavelength was set at 488 nm and emission wavelength set at 530 nm to detect fluorescence density and as representative of mitochondria transmembrane potential change.

[9] = test system: human normal monocytes isolated from peripheral blood mononuclelar cells; test: Viability of human normal monocytes; assay type: cell-based; conditions: for effect on normal monocytes: normal human peripheral blood monocytes
Protocol: FIG. 4 is a morphological assessment of human normal peripheral blood monocytes treated by the compound. Liu's stain method was used for morphological observation. (A) Control group and (B) Experimental group (treated with 5 μg/ml of the compound for 1 day).

[10] = test system: U937, BxPC-3, CE-81T/VGH, HA22T/VGH and HeLa tumor cell lines; test: MTT assay, summary over the inhibited tumor cell lines; assay type: cell-based, human; conditions: range over U937, BxPC-3, CE-81T/VGH

Row | SMILES | block of induced growth inhibition by caspase 3 and pan-caspase inhibitors (caspase 3 and caspase 8) | inhibitory rate (human leukemic cell U937 [1]; U937, 1.25, 2.5, 5 and 10 μg/ml, all groups, third day) | inhibitory rate (human leukemic cell U937 [1]; U937, 5 and 10 μg/ml groups, third day) | highest inhibitory rate (human leukemic cell U937 [1]; U937, highest rate, 5 and 10 μg/ml groups, third day) [%] | IC50 (human leukemic cell U937 [1]; U937 cells, MTT) | inhibition rate ([2]; 5 μg/ml (summary)) [%] | highest inhibitory rate ([2]; 5 and 10 μg/ml groups, third day, highest rate) [%] | inhibitory rate [3] [%] | inhibitory rate [4] [%] | inhibitory rate [5] [%] | growth inhibition [6] | cell cycle distribution [7] | genomic DNA fragmentation (DNA ladder) (tumor cells) | mitochondria transmembrane potential change (human leukemic cell U937 [8]) | viability inhibition ([9]; human normal monocytes) [%] | effect on normal monocytes [9] | effect on normal monocytes ([9]; listed as The compound) | inhibition rate on tumor cell lines [10]
1 | CC[C@@]1(O)C(=O)OCc2c1cc1n(c2=O)Cc2cc3ccccc3nc2-1 [camptothecin, reference compound] | could block |  |  |  |  |  |  |  |  |  |  |  |  |  |  |  |  | 
2 | CC(C)=CCC[C@@H](CO)[C@H]1C[C@H](O)[C@@]2(C)C3=C(CC[C@]12C)[C@@]1(C)CC[C@H](O)C(C)(C)[C@@H]1CC3 [the compound, (22R)-5α-lanosta-8,24-dien-3β,15α,21-triol] |  | more than 60% | more than 95% | 99.8 | about 2 μg/ml | 49.1 | 48.5 | 61.4 | 90.3 | 56.8 | could not inhibit the growth | hypoploidy, G2/M phase arrest, and polyploidy | induced the genomic DNA into oligonucleosomal fragmentations | did not be exhibited significantly reduction of transmembrane potential | < 10 | without toxicity to normal monocytes | no effect | 48.5˜99.8%

— patent publication US8546366B2, “Method for inhibition of tumor cell growth using (22R)-5α-lanosta-8,24-dien-3β,15α,21-triol” (Mackay Memorial Hospital, priority 2011, dated 2013)
